In article PMC5274652, “Antagonizing Retinoic Acid Receptors Increases Myeloid Cell Production by Cultured Human Hematopoietic Stem Cells” (Archivum Immunologiae et Therapiae Experimentalis, 2016):

How the values were obtained:
RARα = molecular target: T1, RARα (Homo sapiens, UniProt P10276)
T1 sequence (P10276 183-417 limits assumed): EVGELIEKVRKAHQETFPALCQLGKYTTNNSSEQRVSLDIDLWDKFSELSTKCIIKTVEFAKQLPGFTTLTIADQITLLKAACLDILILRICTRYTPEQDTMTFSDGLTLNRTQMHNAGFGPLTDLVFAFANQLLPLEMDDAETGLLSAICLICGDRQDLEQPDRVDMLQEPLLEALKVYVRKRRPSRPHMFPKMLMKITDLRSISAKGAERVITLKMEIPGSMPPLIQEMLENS
Text: (§1) For transactivation studies, we used CV-1 kidney fibroblast cells and LNCaP prostate adenocarcinoma cells that can be readily and reproducibly transfected with plasmids and reporters. Transactivation assays using CV-1 cells were undertaken essentially as described previously (Nagpal et al. [1995]). Briefly, CV-1 cells were transiently transfected with a plasmid-containing ERE-tk-Luc promoter-reporter construct using Lipofectamine as described in the manufacturer’s protocol (Fisher Scientific, Loughborough, UK). ERE-tk-Luc transcript comprises a luciferase reporter under control of an estrogen receptor response element. The cells were also transiently transfected with expression vector encoding a fusion protein containing the ligand-binding domain of RARα, RARβ, or RARγ fused to an estrogen receptor DNA-binding domain. Twenty-four hours after transfection, the cells were treated with retinoids under test for 16 h in culture medium-containing 2.5 % charcoal-treated FBS and lysed for determination of luciferase and β-galactosidase activities. Luciferase activity was measured using the Dual-Luciferase Reporter 100 Assay System (Promega, Southampton, UK), and β-galactosidase activity was determined by colorimetric assay. The reporter activity was normalized against β-galactosidase activity. […]

RARβ = molecular target: T2, RARβ (Homo sapiens, UniProt P10826); test: Retinoid receptor transactivation assay in transfected CV-1 cells, RARβ; assay type: cell-based
T2 construct: expressed in transfected cells; host or cells: CV-1 kidney fibroblast cells
T2 sequence (P10826 183-417 limits assumed): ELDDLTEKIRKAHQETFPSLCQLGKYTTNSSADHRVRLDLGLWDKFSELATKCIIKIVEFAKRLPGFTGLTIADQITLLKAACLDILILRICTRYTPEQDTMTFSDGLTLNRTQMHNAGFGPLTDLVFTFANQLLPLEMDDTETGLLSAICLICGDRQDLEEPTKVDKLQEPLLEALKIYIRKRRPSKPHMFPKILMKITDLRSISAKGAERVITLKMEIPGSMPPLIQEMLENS
Text: as §1

RARγ = molecular target: T3, RARγ (Homo sapiens, UniProt P13631); test: Retinoid receptor transactivation assay in transfected CV-1 cells, RARγ; assay type: cell-based
T3 construct: expressed in transfected cells; host or cells: CV-1 kidney fibroblast cells
T3 sequence (P13631 185-419 limits assumed): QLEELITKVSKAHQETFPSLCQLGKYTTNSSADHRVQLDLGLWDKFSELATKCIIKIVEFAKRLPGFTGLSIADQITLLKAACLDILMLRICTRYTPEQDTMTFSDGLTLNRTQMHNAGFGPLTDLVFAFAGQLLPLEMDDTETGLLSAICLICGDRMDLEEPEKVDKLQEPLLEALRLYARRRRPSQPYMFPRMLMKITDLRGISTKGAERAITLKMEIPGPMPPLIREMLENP
Text: as §1

NB-4 cells = test: Differentiation of NB-4 cells (CD11b/CD14 flow cytometry); assay type: cell-based, human; details: NB-4 cells, 96 h
Description: (§2) NB-4 and KG1 cells were obtained from the German Resource Center for Biological Material (DSMZ GmbH, Braunschweig, Germany). The cells were grown in RPMI-1640 medium supplemented with 10 % fetal bovine serum (FBS), 100 U/ml penicillin, and 100 µg/ml streptomycin (Sigma, St Louis, MO, USA). Cells were grown at 37 °C in 5 % CO2.
(§3) The expression of differentiation markers at the cell surface was determined by flow cytometry. Differentiation of NB-4 and KG1 cells was measured by staining using the monoclonal antibodies CD11b-FITC and CD14-PE and appropriately labeled isotype controls (all from ImmunoTools, Friesoythe, Germany). Differentiation of human CD34^+ve cells was measured by triple-color staining using various cocktails of phycoerythrin-, fluorescein isothyocyanate-, and PerCP-monoclonal antibodies (from Becton–Dickinson, San Jose, CA, USA). The markers used to identify cell populations were as follows: CD45^+ve leukocytes; CD34^+ve/CD133^+ve HSCs; CD33^+ve/CD13^+ve immature myeloid; CD117^+ve myeloblasts and promyelocytes; CD11b^+ve/CD15^+ve mature myeloid; CD11b^+ve/CD65^+ve neutrophils; CD11b^+ve/CD14^+ve monocytes; glycophorin^+ve A erythroid cells; CD61^+ve megakaryoblasts and platelets; CD2^+ve/CD5^+ve/CD7^+ve T cells and NK cells; CD56^+ve NK cells; CD19^+ve/CD20^+ve B cells; and CD10^+ve B lymphocyte progenitors; and present on mature neutrophils and DR^+ve progenitors and present on mature monocytes. The cells were stained with 1 µl of the fluorescently labeled antibody (or the appropriate control immunoglobulin) for 1 h on ice. Next, they were washed with ice-cold phosphate-buffered saline (PBS) and suspended in 0.5 ml PBS supplemented with 0.1 % bovine serum albumin (Sigma, St Louis, MO, USA) prior to analysis on FACS Calibur flow cytometer (Becton–Dickinson, San Jose, CA, USA). The acquisition parameters were set for an isotype control. Cells were analyzed using a FACSCalibur, and data analysis was performed using the CellQuest Pro software (Becton–Dickinson, San Jose, CA, USA).

KG1 cells = test: Differentiation of KG1 cells (CD11b/CD14 flow cytometry); assay type: cell-based, human; details: KG1 cells, 1 μM combined with 10 nM 1,25D, 96 h
Description: as §2, §3

zebra fish embryos = tested on: zebra fish embryos; parameters: method as in Wai et al. 2015; details: 10 nM, ref Wai et al. 2015; cited from earlier work

**Q.** With CC1=C(/C=C/C(C)=C/C=C/C(C)=C/C(=O)O)C(C)(C)CCC1 [ATRA, all-trans retinoic acid] as the compound, how does the “concentration required to activate RARα (reporter assays)” value (RARα; discussion, order of magnitude) read?
**A.** ~10^−8 M

**Q.** And the “ATRA concentration at which maximal effect on RARα transactivation is observed” value (RARα; transfected CV-1 cells)?
**A.** ~10^−7 M

**Q.** What about the “ATRA concentration of maximal activation, RARβ” value (RARβ) of the same compound?
**A.** ~ 5 × 10^−9 M

**Q.** And the “concentration at which RARγ is activated (reporter assays)” value (RARγ; discussion, order of magnitude)?
**A.** ~10^−10 M

**Q.** What about the “ATRA concentration of maximal activation, RARγ” value (RARγ; transfected CV-1 cells) of the same compound?
**A.** ~ 5 × 10^−9 M

**Q.** And the “CD11b+ve/CD14+ve cells (monocyte differentiation)” value (NB-4 cells; 1 μM combined with 10 nM 1,25D)?
**A.** ~ 36%

**Q.** And the “CD11b+ve/CD14+ve cells (monocyte differentiation)” value (NB-4 cells; 1 μM, alone)?
**A.** ~ 10%

**Q.** What about the “CD11b+ve/CD14+ve cells (monocyte differentiation)” value (KG1 cells) of the same compound?
**A.** 26%

**Q.** For CC1(C)CCC(C)(C)c2cc(/C(=N\O)c3cc4cc(C(=O)O)ccc4[nH]3)ccc21 [AGN205327], which “effect on stem cell populations and development” value (zebra fish embryos) is on record?
**A.** Stem cell populations were maintained at the expense of the development of bones and neural ganglia
